The values below come from patent publication US8563715B2, “Pyrimidine derivative having cell protecting effect and uses thereof” (Zenyaku Kogyo Kabushikikaisha, priority 2008, dated 2013).

Usually melting point stands for the temperature of the solid-liquid transition. Compound `CCNc1c(N2CCOCC2)nc(N2CCN(c3ccccc3)CC2)nc1N1CCOCC1` [Compound 80, 5-ethylamino-4,6-dimorpholino-2-(4-phenylpiperazin-1-yl)pyrimidine] came in with a melting point of 100 to 104 °C. As for `Fc1c(N2CCOCC2)nc(N2CCOCC2)nc1N1CCN(Cc2ccccc2)CC1` [Compound 90, 4-(4-benzylpiperazin-1-yl)-5-fluoro-2,6-dimorpholinopyrimidine], the melting point was in the range of 108 to 111 °C. The compound `Fc1c(N2CCOCC2)nc(N2CCN(c3ncccn3)CC2)nc1N1CCOCC1` [Compound 92, 5-fluoro-4,6-dimorpholino-2-[4-(pyrimidin-2-yl)piperazin-1-yl]pyrimidine] returned a melting point of 163 to 165 °C. `Fc1c(N2CCOCC2)nc(N2CCNC(c3ccccc3)C2)nc1N1CCOCC1` (stereo not shown) [Compound 93, 5-fluoro-4,6-dimorpholino-2-(3-phenylpiperazin-1-yl)pyrimidine] had a melting point of 170 to 175 °C. On to `Fc1ccc(N2CCN(c3nc(N4CCOCC4)c(F)c(N4CCOCC4)n3)CC2)cc1` [Compound 96, 5-fluoro-2-[4-(4-fluorophenyl)piperazin-1-yl]-4,6-dimorpholinopyrimidine], for which the melting point was in the range of 195 to 198 °C. For the compound `Fc1ccc(N2CCN(c3nc(N4CCOCC4)nc(N4CCOCC4)c3F)CC2)cc1` [Compound 97, 5-fluoro-4-[4-(4-fluorophenyl)piperazin-1-yl]-2,6-dimorpholinopyrimidine], the melting point was in the range of 171 to 174 °C. In turn, `Cc1ccc(N2CCN(c3nc(N4CCOCC4)c(F)c(N4CCOCC4)n3)CC2)cc1` [Compound 98, 5-fluoro-2-[4-(4-methylphenyl)piperazin-1-yl]-4,6-dimorpholinopyrimidine] returned a melting point of 201 to 203 °C.

Turning to `CC(=O)c1ccc(N2CCN(c3nc(N4CCOCC4)c(F)c(N4CCOCC4)n3)CC2)cc1` [Compound 100, 2-[4-(4-acetylphenyl)piperazin-1-yl]-5-fluoro-4,6-dimorpholinopyrimidine], the melting point fell in the range of 195 to 198 °C. `Fc1c(N2CCOCC2)nc(N2CCN(c3ccccc3Cl)CC2)nc1N1CCOCC1` [Compound 102, 2-[4-(2-chlorophenyl)piperazin-1-yl]-5-fluoro-4,6-dimorpholinopyrimidine] displayed a melting point of 118 °C. For the compound `CCOc1ccccc1N1CCN(c2nc(N3CCOCC3)c(F)c(N3CCOCC3)n2)CC1` [Compound 103, 2-[4-(2-ethoxyphenyl)piperazin-1-yl]-5-fluoro-4,6-dimorpholinopyrimidine], the melting point turned out to be 145 °C. As for `Cc1ccccc1N1CCN(c2nc(N3CCOCC3)c(F)c(N3CCOCC3)n2)CC1` [Compound 104, 5-fluoro-2-[4-(2-methylphenyl)piperazin-1-yl]-4,6-dimorpholinopyrimidine], the melting point was determined as 72 °C. As for `Fc1ccccc1N1CCN(c2nc(N3CCOCC3)c(F)c(N3CCOCC3)n2)CC1` [Compound 106, 5-fluoro-2-[4-(2-fluorophenyl)piperazin-1-yl]-4,6-dimorpholinopyrimidine], the melting point amounted to 144 °C. In the case of `Oc1ccc(N2CCN(c3nc(N4CCOCC4)c(F)c(N4CCOCC4)n3)CC2)cc1` [Compound 107, 5-fluoro-2-[4-(4-hydroxyphenyl)piperazin-1-yl]-4,6-dimorpholinopyrimidine], the melting point is 141 °C. Compound `COc1ccccc1N1CCN(c2nc(N3CCOCC3)c(F)c(N3CCOCC3)n2)CC1` [Compound 108, 5-fluoro-2-[4-(2-methoxyphenyl)piperazin-1-yl]-4,6-dimorpholinopyrimidine] displayed a melting point of 171 °C. `Fc1c(N2CCOCC2)nc(N2CCN(c3ccc(Cl)cc3)CC2)nc1N1CCOCC1` [Compound 109, 2-[4-(4-chlorophenyl)piperazin-1-yl]-5-fluoro-4,6-dimorpholinopyrimidine]: the melting point stood at 215 °C. `COc1ccccc1N1CCN(c2nc(N(C)C)nc(N3CCOCC3)c2F)CC1` [Compound 111, 2-dimethylamino-5-fluoro-4-[4-(2-methoxyphenyl)piperazin-1-yl]-6-morpholinopyrimidine] displayed a melting point of 108 °C.
